ChEMBL document CHEMBL1146620, “Structure-activity relationships of the peptide deformylase inhibitor BB-3497: modification of the methylene spacer and the P1' side chain” (Bioorg Med Chem Lett, 2003)
Values after ≈ are worked out from the molar mass of the structure shown.

Experiments:
Escherichia coli = assay: Antibacterial activity against Escherichia coli; format: functional
Staphylococcus capitis = assay: Antibacterial activity against Staphylococcus capitis; format: functional
[1] = target: Peptide deformylase (Escherichia coli) (UniProt P0A6K3); assay: Inhibition against Escherichia coli Peptide deformylase was measured at a concentration of 1 uM
Chain of Peptide deformylase (Escherichia coli) (P0A6K3 whole entry, looked up): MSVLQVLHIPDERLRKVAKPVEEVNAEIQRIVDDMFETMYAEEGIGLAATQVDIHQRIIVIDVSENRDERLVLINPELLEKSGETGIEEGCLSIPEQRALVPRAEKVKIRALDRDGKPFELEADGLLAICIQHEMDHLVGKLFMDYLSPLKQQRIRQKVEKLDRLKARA

SMILES	MIC (Escherichia coli) [µM]	MIC (Staphylococcus capitis) [µM]	inhibition [1] [%]
C=CC[C@H](CN(O)C=O)C(=O)N[C@H](C(=O)N(C)C)C(C)(C)C	50 (≈ 15.7 µg/mL)	> 200	
CCCCCCCC[C@H](CN(O)C=O)C(=O)N[C@H](C(=O)N(C)C)C(C)(C)C	> 200	> 200	
CN(C)C(=O)[C@@H](NC(=O)[C@@H](CN(O)C=O)CN1CCCCC1)C(C)(C)C	> 200	> 200	
CN(C)C(=O)[C@@H](NC(=O)[C@H](Cc1ccccc1)CN(O)C=O)C(C)(C)C	25 (≈ 9.09 µg/mL)	50 (≈ 18.2 µg/mL)	
CC(C)[C@H](CN(O)C=O)C(=O)N[C@H](C(=O)N(C)C)C(C)(C)C	> 200	> 200	
C[C@H](CN(O)C=O)C(=O)N[C@H](C(=O)N(C)C)C(C)(C)C	> 200	> 200	
CCCC[C@H](CCN(O)C=O)C(=O)N[C@H](C(=O)N(C)C)C(C)(C)C	> 200	> 200	
CC[C@H](CN(O)C=O)C(=O)N[C@H](C(=O)N(C)C)C(C)(C)C	200 (≈ 60.3 µg/mL)	> 200	
CC#CC[C@H](CN(O)C=O)C(=O)N[C@H](C(=O)N(C)C)C(C)(C)C	50 (≈ 16.3 µg/mL)	100 (≈ 32.5 µg/mL)	
CCCC[C@H](C(=O)N[C@H](C(=O)N(C)C)C(C)(C)C)N(O)C=O	> 200	> 200	30
CN(C)C(=O)[C@@H](NC(=O)[C@H](CC1CCCCC1)CN(O)C=O)C(C)(C)C	50 (≈ 18.5 µg/mL)	25 (≈ 9.24 µg/mL)	
CCCCC[C@H](CN(O)C=O)C(=O)N[C@H](C(=O)N(C)C)C(C)(C)C	25 (≈ 8.59 µg/mL)	25 (≈ 8.59 µg/mL)	
CC(C)C[C@H](CN(O)C=O)C(=O)N[C@H](C(=O)N(C)C)C(C)(C)C	100 (≈ 32.9 µg/mL)	200 (≈ 65.9 µg/mL)	
CCCCCC[C@H](CN(O)C=O)C(=O)N[C@H](C(=O)N(C)C)C(C)(C)C	100 (≈ 35.7 µg/mL)	> 200	

Other lines, results leading:

MIC (Escherichia coli) [µM]	MIC (Staphylococcus capitis) [µM]	inhibition [1] [%]	SMILES
> 200	> 200		CN(C)C(=O)[C@@H](NC(=O)[C@@H](CN(O)C=O)C1CCCC1)C(C)(C)C
> 200	> 200		CCCC[C@@H](CN(O)C=O)C(=O)N[C@H](C(=O)N(C)C)C(C)(C)C
12.5 (≈ 4.44 µg/mL)	12.5 (≈ 4.44 µg/mL)		CN(C)C(=O)[C@@H](NC(=O)[C@H](CC1CCCC1)CN(O)C=O)C(C)(C)C
25 (≈ 8.19 µg/mL)	200 (≈ 65.5 µg/mL)		C=CCC[C@H](CN(O)C=O)C(=O)N[C@H](C(=O)N(C)C)C(C)(C)C
> 200	> 200		CCCC[C@@H](C(=O)N[C@H](C(=O)N(C)C)C(C)(C)C)C(C)N(O)C=O (some centres undefined)
> 200	> 200		CN(C)C(=O)[C@@H](NC(=O)[C@@H](CN(O)C=O)c1ccc(Cl)cc1)C(C)(C)C
> 200	> 200		COc1ccc(C[C@H](CN(O)C=O)C(=O)N[C@H](C(=O)N(C)C)C(C)(C)C)cc1
25 (≈ 8.69 µg/mL)	> 200		CCSC[C@H](CN(O)C=O)C(=O)N[C@H](C(=O)N(C)C)C(C)(C)C
50 (≈ 15.8 µg/mL)	> 200		CCC[C@H](CN(O)C=O)C(=O)N[C@H](C(=O)N(C)C)C(C)(C)C
50 (≈ 17.2 µg/mL)	200 (≈ 68.7 µg/mL)		CC(C)CC[C@H](CN(O)C=O)C(=O)N[C@H](C(=O)N(C)C)C(C)(C)C
> 200	> 200	20	CCCC[C@@H](C(=O)N[C@H](C(=O)N(C)C)C(C)(C)C)N(O)C=O
> 200	> 200		CCCCCCC[C@H](CN(O)C=O)C(=O)N[C@H](C(=O)N(C)C)C(C)(C)C
